Results published in article PMC12002130, “Proteorhodopsin insights into the molecular mechanism of vectorial proton transport” (Science Advances, 2025).

Columns and labels:
[1] = molecular target: T1, MAR-Arf1L8K,Q71L chimera (Candidatus Actinomarina minuta, UniProt S5DM51); experiment: X-ray crystallography, cryotrapped N state; format: binding; settings: covalent; photoisomer formed in situ by 532-nm light; pH 7.0; 2.3 A; isomer not assignable from density alone
T1 construct: MAR fused to bovine Arf1 (L8K, Q71L) as crystallisation spacer on the cytoplasmic side; C-terminal GSGGSHHHHHH tag; expressed in E. coli C41(DE3); retinal site wholly in MAR
T1 sequence (P84080 2-181 L8K/Q71L, one chain of several, further chain): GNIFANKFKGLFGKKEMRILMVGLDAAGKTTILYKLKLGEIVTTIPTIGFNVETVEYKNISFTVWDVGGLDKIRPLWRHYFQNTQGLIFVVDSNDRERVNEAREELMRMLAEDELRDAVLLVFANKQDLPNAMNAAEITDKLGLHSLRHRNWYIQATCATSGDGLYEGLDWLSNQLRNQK

[2] = molecular target: T1, MAR-Arf1L8K,Q71L chimera; experiment: X-ray crystallography; format: binding; settings: covalent; Schiff base to Lys200 of MAR; dark (ground) state, pH 7.0; all-trans form taken from MAR ground state
[3] = molecular target: Asp72 (position 72, …); experiment: UV-vis; settings: dark (ground) state, solubilized MAR with all-trans retinal

CC1=C(/C=C/C(C)=C/C=C/C(C)=C\C=O)C(C)(C)CCC1 [13-cis,15-anti retinal]
X-ray crystallography, cryotrapped N state [1]: the retinal conformation in the N state represents the 13-cis,15-anti form

CC1=C(/C=C/C(C)=C/C=C/C(C)=C/C=O)C(C)(C)CCC1 [all-trans retinal]
X-ray crystallography [2]: The conformation of the MAR molecule is similar to that in the ground state

B1: MAR (marine actinobacterial rhodopsin, MacR), a proteorhodopsin (Candidatus Actinomarina minuta) (protein)
chain: MEELTYRLFMVATVGMLAGTVFLLASSREVKPEHRRGVYISALVCGIAWYHYQKMGASWESGSYDTGLRYVDWVLTVPLMFVEVLAVTRKGAAYNEAVRNWGIAATVMIGAGYYGETSAAGSNEYWTGFVIAMATYVWLMRNLQAEGEGLKGDQAVAFENIKNLILVGWIIYPLGYIAPVVGDFDAIREVLYTIADIINKVGLGVLVLQMARVQSGEKVSPGGGSHHHHHH
pKa [3]: ~7.4
